Source: article PMC11224556, “Next-generation of BBQ analogues that selectively target breast cancer” (Frontiers in Chemistry, 2024)
Where two headings read alike, the source gives them in different places.

Experiments:
HT29 (colorectal) cells = test: MTT growth inhibition assay (72 h); type: cell-based, human
Source text: (§1) Each BBQ analogue, 2-14 was screened for their growth inhibition ability (GI50) in a broad panel of cancer cell lines and a non-cancer breast cell line (MCF10A), using the MTT growth inhibition assay (Table 1) ([Baker et al., 2021b]). The cancer panel comprised HT29 (colorectal), U87 (brain), SJ-G2 (brain), A2780 (ovary), Du145 (prostate), BE2-C (neuronal), MIA (pancreas), H460 (lung, ER+), A431 (vulva, ER+ (estrogen receptor positive)), and a wide selection of breast cancer cell lines with varying receptor status including MCF-7 (ER + luminal A), T47D (ER/PR+ (progesterone receptor positive)luminal A), ZR-75-1 (ER/PR + luminal A), BT-474 (ER/PR/HER2+ luminal B), SKBR-3 (HER2+), MDA-MB-468, BT20, and MDA-MB-231 (basal, triple negative (TN) for ER, PR, and HER2).
(§2) Stock solutions were prepared as follows and stored as 20 mM DMSO solutions at −20 °C. All cell lines were cultured in a humidified atmosphere 5% CO2 at 37 °C. The cancer cell lines were maintained in Dulbecco’s modified Eagle’s medium (DMEM) (Trace Biosciences, Australia) supplemented with 10% foetal bovine serum (FBS), 10 mM sodium bicarbonate, penicillin (100 IU/mL), streptomycin (100 μg/mL), and glutamine (4 mM). The non-cancer MCF10A cell line was cultured in DMEM:F12 (1:1) cell culture media, 5% heat inactivated horse serum, supplemented with penicillin (50 IU/mL), streptomycin (50 μg/mL), 20 mM Hepes, L-glutamine (2 mM), epidermal growth factor (20 ng/mL), hydrocortisone (500 ng/mL), cholera toxin (100 ng/mL), and insulin (10 μg/mL). The AhR reporter cell line HT29-Lucia™ (Invivogen, United States) was maintained in DMEM supplemented with 10% heat inactivated FBS, L-glutamine (2 mM), penicillin (100 IU/mL), streptomycin (100 μg/mL), 100 μg/mL Normocin™, and 100 μg/mL of the selective antibiotic Zeocin™. All cell lines were purchased from the American Type Culture Collection (ATCC), except for A2780 and A431 which were from the European Collection of Authenticated Cell Cultures (ECACC), and SJ-G2 cell line which was from Dr Mary Danks, St Jude Children’s Research hospital, Memphis, TN.
(§3) Cells in logarithmic growth were transferred to 96-well plates. Cytotoxicity was determined by plating cells in duplicate in 100 μL medium at a density of 2,500–4,000 cells/well in 96 well plates. On day 0, (24 h after plating) when the cells were in logarithmic growth 100 μL medium with or without the test agent was added to each well. After 72 h drug exposure growth inhibitory effects were evaluated using the MTT (3-[4,5-dimethylthiazol-2-yl]-2,5-diphenyltetrazolium bromide) assay with absorbance read at 540 nm. An eight-point dose response curve was produced, using MS Excel software. From these dose-response curves, the GI50 value was calculated, representing the drug concentration at which cell growth is 50% inhibited based on the difference between the optical density values on day 0 and those at the end of drug exposure ([Bradshaw et al., 2008]; [Zhang et al., 2009]). Each data point was conducted in duplicate and the mean ± S.E.M. calculated from four to five replicates (n = 4 or 5), which were performed on separate occasions and separate cell line passages. Where shown, significant test results were determined using T-test analysis at p < 0.01 and p < 0.05 with a two tail distribution.

A2780 (ovary) cells = test: MTT growth inhibition assay (72 h); type: cell-based, human
Source text: as §1, §2, §3

SJ-G2 (brain) cells = test: MTT growth inhibition assay (72 h); type: cell-based, human; details: SJ-G2, Brain (GBM)
Source text: as §1, §2, §3

MIA (pancreas) cells = test: MTT growth inhibition assay (72 h); type: cell-based, human
Source text: as §1, §2, §3

[1] = test system: SKBR3 breast cancer cells; test: MTT growth inhibition assay (72 h); type: cell-based, human
Source text: as §1, §2, §3

[2] = test system: BT474 breast cancer cells; test: MTT growth inhibition assay (72 h); type: cell-based, human
Source text: as §1, §2, §3

T47D breast cancer cells = test: MTT growth inhibition assay (72 h); type: cell-based, human; details: Breast (ER/PR)
Source text: as §1, §2, §3

U87 (brain) cells = test: MTT growth inhibition assay (72 h); type: cell-based, human; details: U87, Brain (GBM)
Source text: as §1, §2, §3

BE2-C (neuronal) cells = test: MTT growth inhibition assay (72 h); type: cell-based, human; details: Neuron
Source text: as §1, §2, §3

H460 (lung) cells = test: MTT growth inhibition assay (72 h); type: cell-based, human
Source text: as §1, §2, §3

[3] = test system: MCF-7 breast cancer cells; test: MTT growth inhibition assay (72 h); type: cell-based, human
Source text: as §1, §2, §3

BT20 breast cancer cells = test: MTT growth inhibition assay (72 h); type: cell-based, human
Source text: as §1, §2, §3

A431 (vulva/skin) cells = test: MTT growth inhibition assay (72 h); type: cell-based, human
Source text: as §1, §2, §3

Du145 (prostate) cells = test: MTT growth inhibition assay (72 h); type: cell-based, human
Source text: as §1, §2, §3

[4] = test system: MCF10A normal breast cells; test: MTT growth inhibition assay (72 h); type: cell-based, human
Source text: as §1, §2, §3

[5] = test system: MDA-MB-231 breast cancer cells; test: MTT growth inhibition assay (72 h); type: cell-based, human; details: MDA-MB-231, Breast (TN)
Source text: as §1, §2, §3

[6] = test system: MDA-MB-468 breast cancer cells; test: MTT growth inhibition assay (72 h); type: cell-based, human; details: MDA-MB-468, Breast (TN)
Source text: as §1, §2, §3

[7] = test system: ZR-75-1 breast cancer cells; test: MTT growth inhibition assay (72 h); type: cell-based, human; details: ZR-75-1, Breast (ER/PR)
Source text: as §1, §2, §3

[8] = test system: broad panel of cancer cell lines and non-cancer breast cell line MCF10A; test: MTT growth inhibition: GI50 ranges and selectivity across the cell line panel; type: cell-based, human
Source text: as §1, §2, §3

[9] = test system: broad panel of cancer cell lines and non-cancer breast cell line MCF10A; details: cited from earlier work
[10] = Homo sapiens, HT-29, HT29, Colon
[11] = Homo sapiens, SK-BR-3, SKBR3, Breast (HER2)
[12] = Homo sapiens, BT-474, BT474, Breast (ER/PR/HER2)
[13] = Homo sapiens, NCI-H460, H460, Lung (ER)
[14] = Homo sapiens, MCF7, MCF-7, Breast (ER)
[15] = Homo sapiens, BT-20, BT20, Breast (TN)
[16] = Homo sapiens, A-431, A431, Skin (ER)
[17] = Homo sapiens, read-out: GI50 (range over cell lines and both compounds 3 and 4), ZR-75-1, SKBR3 and MDA-MB-468

Compound: O=c1c2cccc3cccc(c32)c2nc3cc(Cl)ccc3n12 [Compound 4, 11-Chloro-7H-benzo[de]benzo[4,5]imidazo[2,1-a]isoquinolin-7-one]
- GI50 (HT29 (colorectal) cells; [10]): 18 ± 3.2 µM
- GI50 (A2780 (ovary) cells; Homo sapiens): 6 ± 0.32 µM
- GI50 (SJ-G2 (brain) cells; Homo sapiens): 8.8 ± 1.1 µM
- GI50 (MIA (pancreas) cells; Homo sapiens): 31 ± 3.3 µM
- GI50 [1, 11]: 0.26 ± 0.07 µM
- GI50 [2, 12]: > 50 µM
- GI50 (T47D breast cancer cells; Homo sapiens): 8.6 ± 2.2 µM
- GI50 (U87 (brain) cells; Homo sapiens): 18 ± 1.8 µM
- GI50 (BE2-C (neuronal) cells; Homo sapiens, BE(2)-C): 10 ± 1.7 µM
- GI50 (H460 (lung) cells; [13]): 8.2 ± 1.92 µM
- GI50 [3, 14]: 5.3 ± 0.39 µM
- GI50 (BT20 breast cancer cells; [15]): 28 ± 3 µM
- GI50 (A431 (vulva/skin) cells; [16]): 10 ± 2 µM
- GI50 (Du145 (prostate) cells; Homo sapiens, DU-145): 12 ± 0.33 µM
- GI50 ([4]; Homo sapiens, MCF-10A): 4.1 ± 0.2 µM
- GI50 ([5]; Homo sapiens): 9 ± 1 µM
- GI50 ([6]; Homo sapiens): 0.88 ± 0.17 µM
- GI50 ([7]; Homo sapiens): 0.81 ± 0.43 µM
- GI50 [8, 17]: 0.26 to 0.88 µM
- greatest difference between growth inhibition in breast cancer cells and normal breast cells (fold) ([8]; SKBR3 vs MCF10A): 16 fold

Compound: 3-Chloro-7H-benzo[de]benzo[4,5]imidazo[2,1-a]isoquinolin-7-one (10a) and 4-chloro-7H-benzo[de]benzo[4,5]imidazo[2,1-a]isoquinolin-7-one (10b) [Compound 10]
- GI50 (HT29 (colorectal) cells; HT29, Colon): 2.9 ± 0.18 µM
- GI50 (A2780 (ovary) cells): 4.6 ± 0.25 µM
- GI50 (SJ-G2 (brain) cells): 4.8 ± 0.44 µM
- GI50 (MIA (pancreas) cells): 9.8 ± 3.1 µM
- GI50 ([1]; SKBR3, Breast (HER2)): 0.061 ± 0.024 µM
- GI50 ([2]; BT474, Breast (ER/PR/HER2)): 0.56 ± 0.42 µM
- GI50 (T47D breast cancer cells): 0.18 ± 0.019 µM
- GI50 (U87 (brain) cells): 37 ± 5.8 µM
- GI50 (BE2-C (neuronal) cells): 7 ± 0.23 µM
- GI50 (H460 (lung) cells; H460, Lung (ER)): 5.7 ± 1.48 µM
- GI50 ([3]; MCF-7, Breast (ER)): 0.14 ± 0.045 µM
- GI50 (BT20 breast cancer cells; BT20, Breast (TN)): 0.27 ± 0.12 µM
- GI50 (A431 (vulva/skin) cells; A431, Skin (ER)): 0.15 ± 0.036 µM
- GI50 (Du145 (prostate) cells): > 50 µM
- GI50 [4]: 4.2 ± 0.38 µM
- GI50 [5]: 29 ± 10.3 µM
- GI50 [6]: 0.0056 ± 0.0017 µM
- GI50 [7]: 0.072 ± 0.03 µM
- selectivity relative to the normal cell line (fold, range over cell lines) ([8]; A431, MCF-7, T47D, ZR-75-1, SKBR-3, MDA-MB-468, BT20, BT474 vs MCF10A): 7.5 to 750 fold
- GI50 ([8]; MCF-7, T47D, ZR-75-1, SKBR-3, MDA-MB-468, BT20, BT474, read-out: GI50 (range over cell lines)): 0.0056 to 0.56 µM
- fold more potent than head group substituted analogues 3, 4, 6, 7, 8 and 9 ([8]; across the cell lines examined (Table 1)): > 10 fold

Compound: Nc1ccccc1N1C(=O)c2cccc3cccc(c23)C1=O [Compound 2, 2-(2-aminophenyl)-1H-benzo[de]isoquinoline-1,3(2H)-dione]
- increase in growth inhibition potency compared with MCF10A cells (fold, range over cell lines) ([8]; A431, T47D, ZR-75-1, SKBR3, MDA-MB-468 vs MCF10A, from GI50 values of ref Gilbert et al., 2020): 100 to 300 fold
- GI50 ([9]; A431, MCF-7, T47D, ZR-75-1, SKBR3, MDA-MB-468, BT474, ref Gilbert et al., 2020, read-out: GI50 (range over cell lines)): 0.1 to 0.7 µM
- selective targeting of certain breast cancer cell lines compared with normal breast cells or other tumour types (fold) ([9]; ref Gilbert et al., 2017, Gilbert et al., 2020): more than 500 fold

Compound: O=c1c2cccc3cccc(c32)c2nc3ccc(Cl)cc3n12 [Compound 3, 10-Chloro-7H-benzo[de]benzo[4,5]imidazo[2,1-a]isoquinolin-7-one]
- GI50 (HT29 (colorectal) cells; [10]): 21 ± 3.3 µM
- GI50 (A2780 (ovary) cells; Homo sapiens): 6.2 ± 0.46 µM
- GI50 (SJ-G2 (brain) cells; Homo sapiens): 33 ± 8.3 µM
- GI50 (MIA (pancreas) cells; Homo sapiens): > 50 µM
- GI50 [1, 11]: 0.3 ± 0.12 µM
- GI50 [2, 12]: > 50 µM
- GI50 (T47D breast cancer cells; Homo sapiens): 11 ± 1.4 µM
- GI50 (U87 (brain) cells; Homo sapiens): 18 ± 3.8 µM
- GI50 (BE2-C (neuronal) cells; Homo sapiens, BE(2)-C): 17 ± 4.3 µM
- GI50 (H460 (lung) cells; [13]): 7.2 ± 1.16 µM
- GI50 [3, 14]: 7.9 ± 1.14 µM
- GI50 (BT20 breast cancer cells; [15]): 33 ± 4 µM
- GI50 (A431 (vulva/skin) cells; [16]): 12 ± 1.8 µM
- GI50 (Du145 (prostate) cells; Homo sapiens, DU-145): 22 ± 3.1 µM
- GI50 ([4]; Homo sapiens, MCF-10A): 3.9 ± 0.21 µM
- GI50 ([5]; Homo sapiens): 17 ± 6.1 µM
- GI50 ([7]; Homo sapiens): 0.48 ± 0.24 µM
- GI50 [8, 17]: 0.26 to 0.88 µM
- selective in targeting certain breast cancer cell lines compared with normal cells or other tumour types (fold) ([9]; ref Baker et al., 2021a, Elson et al., 2023): up to 150 fold

Compound: O=c1c2ccccc2cc2[nH]c3ccccc3n12 [Compound 12, Benzo[4,5]imidazo[1,2-b]isoquinolin-11(5H)-one]
- GI50 (HT29 (colorectal) cells; [10]): 0.21 ± 0.056 µM
- GI50 (A2780 (ovary) cells; Homo sapiens): 3 ± 2.1 µM
- GI50 (SJ-G2 (brain) cells; Homo sapiens): 43 ± 10.3 µM
- GI50 (MIA (pancreas) cells; Homo sapiens): 0.62 ± 0.16 µM
- GI50 [1, 11]: 0.2 ± 0.071 µM
- GI50 [2, 12]: > 50 µM
- GI50 (T47D breast cancer cells; Homo sapiens): 0.164 ± 0.083 µM
- GI50 (U87 (brain) cells; Homo sapiens): > 50 µM
- GI50 (BE2-C (neuronal) cells; Homo sapiens, BE(2)-C): 0.24 ± 0.079 µM
- GI50 (H460 (lung) cells; [13]): > 50 µM
- GI50 [3, 14]: 0.12 ± 0.05 µM
- GI50 (BT20 breast cancer cells; [15]): 0.16 ± 0.048 µM
- GI50 (A431 (vulva/skin) cells; [16]): 0.48 ± 0.1 µM
- GI50 (Du145 (prostate) cells; Homo sapiens, DU-145): > 50 µM
- GI50 ([4]; Homo sapiens, MCF-10A): 0.54 ± 0.07 µM
- GI50 ([5]; Homo sapiens): > 50 µM
- GI50 ([6]; Homo sapiens): 0.141 ± 0.074 µM
- GI50 ([7]; Homo sapiens): 0.17 ± 0.023 µM
